Measured values from publication PMC10708468, “New Dipyrroloquinones from a Plant-Derived Endophytic Fungus Talaromyces sp” (Molecules, 2023).
“Also recorded” adds a separate entry of the source. Like-named read-outs stand apart in the source and are kept apart here.

Experiments:
[1] = test system: LPS-induced NO production in macrophage RAW264.7 cells; experiment: Inhibition of LPS-induced NO production (Griess reaction); type: cell-based; conditions: Mus musculus; for IC50: macrophage RAW264.7 cells, given as IC50, read-out: IC50 inhibition of LPS-stimulated NO production
Procedure: (§1) RAW264.7 cells were cultured in DMEM with 10% fetal bovine serum (FBS) and 1% penicillin-streptomycin at 37 °C in 5% CO2. The MTT assay was used to evaluate cell viability. RAW264.7 cells were seeded on 96-well plates at 5 × 10^5 cells/well [26]. After incubation with compounds 1–6 at five concentrations ([…]) for 24 h, cells were treated with MTT (5 mg/mL) at 37 °C for 4 h. Then, the supernatant was removed and the […] was crystalised with DMSO. The absorbance was measured at 570 nm. The Griess reaction was applied to measure the accumulation of NO2^− in culture supernatant. RAW264.7 cells were treated with the compounds for 1 h then with the presence of LPS (1 μg/mL) for 24 h. The culture supernatant fluids (50 µL) and Griess reagent (50 µL) were mixed and incubated at room temperature. The absorbance was read at 570 nm after 15 min.

[2] = test system: liver cancer cells Hep G2; experiment: MTT cytotoxic activity assay, Hep G2; type: cell-based; conditions: Homo sapiens
Procedure: (§2) The 3-(4,5-dimethyl-2-thiazolyl)-2,5-diphenyl-2-h-tetrazole ammonium bromide (MTT) experiment was applied to test the cytotoxic activity for 1–6 against human lung cancer cells A549 and liver cancer cells Hep G2. Cells in RPMI-1640 medium (10% FBS, 0.4% penicillin–streptomycin solution) were digested with trypsin and diluted to the concentration of 1 × 10^4 cells/mL. The cell suspensions were diluted and added into a 96-well microtiter plate with 200 µL per well. The plate was then incubated in a CO2 incubator at 37 °C. Compounds 1–6 were added to the plate wells after 24 h and incubated for 72 h. Adriamycin (ADM) was used as the positive control, and DMSO as the blank control. The MTT solution was added after 72 h incubation, followed by incubation for 4 h. The cells were successively disrupted with 200 µL of DMSO for 10 min after the supernatant liquid was removed. The absorption was measured at 570 nm.

[3] = test system: human lung cancer cells A549; experiment: MTT cytotoxic activity assay, A549; type: cell-based
Procedure: as §2

[4] = test system: RAW264.7 cells; experiment: MTT cell viability of RAW264.7 cells (non-toxic concentrations); type: cell-based; conditions: 24 h
Procedure: as §1

[5] = test system: PI3K-Akt-mTOR signalling pathway; experiment: Western blot analysis of PI3K-Akt-mTOR signalling pathway in A549 cells; type: cell-based, human; conditions: 0.2 and 0.4 μM, 24 h
Procedure: Considering the significant cytotoxicities of penicillixanthone A (4), we evaluated its plausible molecular mechanism in A549 tumour cells using western blot analysis in Figure 5. Compound 4 (0.2 and 0.4 µM) was firstly pretreated for 24 h to test the PI3K expression.
Figure 5 The protein expression of the PI3K-Akt-mTOR signalling pathway of 4 was evaluated by western blot analysis. A549 cells were treated with 4 (0.2 and 0.4 μM) for 24 h, and the expression levels of PI3K, Akt and mTOR were tested by the responsible antibodies. […] Data are represented as the mean ± SD, n = 3, *** p < 0.01 vs. Control.

[6] = LPS (1 μg/mL)-induced NO production in RAW264.7 cells, 24 h, Griess reaction, read-out: EC50
[7] = HepG2 cells, MTT, 72 h incubation, read-out: IC50 cytotoxicity HepG2
[8] = A549 cells, MTT, 72 h incubation, read-out: IC50 cytotoxicity A549

| Structure (SMILES) | EC50 [1, 6] | IC50 [1] | IC50 [2, 7] | IC50 [3, 8] | Non-Toxic Concentrations [4] | EC50 ([1]; RAW264.7, 24 h) | IC50 ([2]; HepG2, Hep G2 cell line, read-out: IC50 cytotoxic activity Hep G2) | IC50 ([3]; A549 cell line, read-out: IC50 cytotoxic activity A549) | phospho-PI3K expression [5] | phospho-mTOR/Akt expression [5] | expression of PI3K, Akt and mTOR (PI3K-Akt-mTOR signalling pathway) ([5]; p < 0.01 vs. Control) |
| --- | --- | --- | --- | --- | --- | --- | --- | --- | --- | --- | --- |
| CO[C@@H](c1cc2c([nH]1)C(=O)c1cc([C@H](O)C(C)C)[nH]c1C2=O)C(C)C [Compound 2, Talaroterreusinone B] | 30.7 µM | 30.7 µM | 84.7 µM | 98.8 µM | 2.90 to 190.69 µM | – | – | – | – | – | – |
| COC(=O)[C@]12Oc3ccc(-c4ccc(O)c5c4O[C@@]4(C(=O)OC)C(=C(O)C[C@@H](C)[C@@H]4O)C5=O)c(O)c3C(=O)C1=C(O)C[C@@H](C)[C@@H]2O [Compound 4, penicillixanthone A] | – | – | 0.212 µM | 0.117 µM | – | 1 µM | 0.117 µM | 0.212 µM | decrease the phospho-PI3K expression | significantly suppressed | inhibiting the PI3K-Akt-mTOR signalling pathway; also recorded: inhibited the expression of PI3K, Akt and mTOR |
| C/C1=C\Cc2c(cc(O)c3c2C[C@@H](C)OC3=O)OC(C)(C)[C@@H](O)CC/C(C)=C/CC1 [Compound 6, chrysomutanin] | 142 µM | – | 43.9 µM | 42.5 µM | 2.41 to 241.54 µM | – | – | – | – | – | – |
| COc1cccc2c1C(=O)c1c(O)c3c(c(O)c1C2=O)C[C@@](O)(C(=O)CO)C[C@@H]3O[C@H]1C[C@H](N)[C@H](O)[C@H](C)O1 [adriamycin, Adriamycin, reference compound] | – | – | 1.2 µM | 3.5 µM | – | – | – | – | – | – | – |

Further compounds by falling EC50 [1, 6], results first:

| EC50 [1, 6] | IC50 [1] | Structure (SMILES) | IC50 [2, 7] | IC50 [3, 8] | Non-Toxic Concentrations [4] | EC50 ([1]; RAW264.7, 24 h) | IC50 ([2]; HepG2, Hep G2 cell line, read-out: IC50 cytotoxic activity Hep G2) | IC50 ([3]; A549 cell line, read-out: IC50 cytotoxic activity A549) | phospho-PI3K expression [5] | phospho-mTOR/Akt expression [5] | expression of PI3K, Akt and mTOR (PI3K-Akt-mTOR signalling pathway) ([5]; p < 0.01 vs. Control) |
| --- | --- | --- | --- | --- | --- | --- | --- | --- | --- | --- | --- |
| 121 µM | – | CC(O)Cc1cc(O)c2c(c1)C(=O)c1cc(O)cc(O)c1C2=O (centres unmarked) [Compound 5, isorhodoptilometrin] | > 150 µM | > 150 µM | 3.18 to 318.47 µM | – | – | – | – | – | – |
| 20.6 µM | 20.6 µM | CO[C@H](c1cc2c([nH]1)C(=O)c1cc([C@H](OC)C(C)C)[nH]c1C2=O)C(C)C [Compound 3, terreusinone D] | 57.4 µM | 62.7 µM | 2.79 to 279.32 µM | – | – | – | – | – | – |
| 20.3 µM | 20.3 µM | CC(C)C(=O)c1cc2c([nH]1)C(=O)c1cc([C@H](O)C(C)C)[nH]c1C2=O [Compound 1, talaroterreusinone A] | 111 µM | 133 µM | 3.04 to 304.87 µM | – | – | – | – | – | – |
| 1.6 µM | – | Oc1ccc(/C=C/c2cc(O)cc(O)c2)cc1 [resveratrol, reference compound] | – | – | 0.43 to 109.52 µM | – | – | – | – | – | – |
